Measurements taken from patent publication US20230183237A1, “COMPETITIVE AND NONCOMPETITIVE INHIBITORS OF THE MUSCARINIC ACETYLCHOLINE RECEPTOR M5” (Vanderbilt University, priority 2020, published 2023).
Where two headings read alike, the source gives them in different places.

Target: T1, hM5 (Homo sapiens, UniProt P08912)
T1 construct: expressed in transfected cells
T1 sequence (P08912 1-532): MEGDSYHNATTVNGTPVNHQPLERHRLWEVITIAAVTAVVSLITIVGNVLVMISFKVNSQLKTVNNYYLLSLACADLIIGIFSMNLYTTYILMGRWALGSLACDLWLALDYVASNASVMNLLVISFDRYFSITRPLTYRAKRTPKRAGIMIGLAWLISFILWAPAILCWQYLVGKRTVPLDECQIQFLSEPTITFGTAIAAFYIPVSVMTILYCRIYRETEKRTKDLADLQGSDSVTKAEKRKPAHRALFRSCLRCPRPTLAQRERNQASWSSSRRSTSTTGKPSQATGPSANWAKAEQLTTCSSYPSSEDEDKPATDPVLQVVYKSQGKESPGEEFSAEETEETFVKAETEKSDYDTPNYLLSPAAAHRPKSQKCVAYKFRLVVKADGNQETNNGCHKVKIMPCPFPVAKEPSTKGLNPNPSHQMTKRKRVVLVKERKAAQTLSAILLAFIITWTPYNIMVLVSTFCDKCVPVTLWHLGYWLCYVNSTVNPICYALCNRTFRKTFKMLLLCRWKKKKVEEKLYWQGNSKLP
Assay: Calcium mobilization concentration-response (IC50 vs EC80 acetylcholine), CHO hM5
Format: cell-based
Conditions: CELL LINE hM5, read-out: IC50
Summary of the method: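 CHO cells stably expressing hM5, dye-loaded, in HBSS/20 mM HEPES/2.5 mM probenecid, pH 7.4. Compounds were pre-incubated 140 s before an EC80 acetylcholine challenge, with calcium flux read kinetically.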

[1] = calcium mobilization, EC80 acetylcholine addition

Compound | IC50 (vs EC80 acetylcholine) | IC50 [1]
Cc1ncc(S(=O)(=O)N2CCC(c3cc(F)c4ncnn4c3)CC2)n1C [Compound 467, 6-(1-((1,2-dimethyl-1H-imidazol-5-yl)sulfonyl)piperidin-4-yl)-8-fluoro-[1,2,4]triazolo[1,5-a]pyridine] | 4140 nM | 
CCc1cc2ncnn2cc1C1CCN(S(=O)(=O)c2c(Cl)nn(C)c2C)CC1 [Compound 337, 6-(1-((3-chloro-1,5-dimethyl-1H-pyrazol-4-yl)sulfonyl)piperidin-4-yl)-7-ethyl-[1,2,4]triazolo[1,5-a]pyridine] |  | 37 nM
Cc1cc2nccnc2cc1C1=CCN(S(=O)(=O)c2cnn(C)c2Cl)CC1 [Compound 355, 6-(1-((5-chloro-1-methyl-1H-pyrazol-4-yl)sulfonyl)-1,2,3,6-tetrahydropyridin-4-yl)-7-methylquinoxaline] |  | 157 nM
O=S(=O)(c1ccc2ncsc2c1)N1CCC(c2ccncc2)CC1 [Compound 1, 6-((4-(pyridin-4-yl)piperidin-1-yl)sulfonyl)benzo[d]thiazole] |  | > 10000 nM
Cc1cc(S(=O)(=O)N2CCC(c3cn4ncnc4cc3CF)CC2)sn1 [Compound 605, 5-((4-(7-(Fluoromethyl)-[1,2,4]triazolo[1,5-a]pyridin-6-yl)piperidin-1-yl)sulfonyl)-3-methylisothiazole] | 26 nM | 
[2H]C1([2H])CC(c2cn3ncnc3c(F)c2C)CC([2H])([2H])N1S(=O)(=O)c1cnc2sccn12 [Compound 537, 5-((4-(8-fluoro-7-methyl-[1,2,4]triazolo[1,5-a]pyridin-6-yl)piperidin-1-yl-2,2,6,6-d4)sulfonyl)imidazo[2,1-b]thiazole] | 11 nM | 
Cc1cnc2ccccc2c1C1=CCN(S(=O)(=O)c2cnn3c2OCCC3)CC1 [Compound 428, 3-((4-(3-methylquinolin-4-yl)-3,6-dihydropyridin-1(2H)-yl)sulfonyl)-6,7-dihydro-5H-pyrazolo[5,1-b][1,3]oxazine] | 63 nM | 
O=S(=O)(c1cnc2ccccn12)N1CCC(c2cn3ncnc3cc2F)CC1 [Compound 327, 7-fluoro-6-(1-(imidazo[1,2-a]pyridin-3-ylsulfonyl)piperidin-4-yl)-[1,2,4]triazolo[1,5-a]pyridine] |  | 774 nM
O=S(=O)(c1ccc2c(c1)CCO2)N1CC=C(c2cn3ncnc3cc2Cl)CC1 [Compound 139, 7-chloro-6-(1-((2,3-dihydrobenzofuran-5-yl)sulfonyl)-1,2,3,6-tetrahydropyridin-4-yl)-[1,2,4]triazolo[1,5-a]pyridine] |  | 149 nM
Cc1cc2ncnn2nc1C1=CCN(S(=O)(=O)c2ccc3c(c2)N(C)CCO3)CC1 [Compound 170, 4-methyl-6-((4-(7-methyl-[1,2,4]triazolo[1,5-b]pyridazin-6-yl)-3,6-dihydropyridin-1(2H)-yl)sulfonyl)-3,4-dihydro-H-benzo[b][1,4]oxazine] |  | > 10000 nM
O=S(=O)(c1ccc2c(c1)CCO2)N1CCC(c2cn3ncnc3cc2C(F)(F)F)CC1 [Compound 109, 6-(1-((2,3-dihydrobenzofuran-5-yl)sulfonyl)piperidin-4-yl)-7-(trifluoromethyl)-[1,2,4]triazolo[1,5-a]pyridine] |  | 746 nM
O=S(=O)(c1cnn2c1OCCC2)N1CCC(c2ccncc2)CC1 [Compound 367, 3-((4-(pyridin-4-yl)piperidin-1-yl)sulfonyl)-6,7-dihydro-5H-pyrazolo[5,1-b][1,3]oxazine] |  | > 10000 nM
O=S(=O)(c1ccc2c(c1)CCO2)N1CCC(c2cc(-c3ccco3)n[nH]2)CC1 [Compound 4, 1-((2,3-dihydrobenzofuran-5-yl)sulfonyl)-4-(3-(furan-2-yl)-1H-pyrazol-5-yl)piperidine] |  | > 10000 nM
Cc1ncc(S(=O)(=O)N2CCC(c3cn4ncnc4cc3C(F)(F)F)CC2)n1C [Compound 277, 6-(1-((1,2-dimethyl-1H-imidazol-5-yl)sulfonyl)piperidin-4-yl)-7-(trifluoromethyl)-[1,2,4]triazolo[1,5-a]pyridine] |  | 234 nM
Cc1nn(C)c(C(F)(F)F)c1S(=O)(=O)N1CCC(c2cn3ncnc3cc2F)CC1 [Compound 227, 6-(1-((1,3-dimethyl-5-(trifluoromethyl)-1H-pyrazol-4-yl)sulfonyl)piperidin-4-yl)-7-fluoro-[1,2,4]triazolo[1,5-a]pyridine] |  | 2100 nM
Cc1ccncc1C1CCN(S(=O)(=O)c2cnn(C)c2C)CC1 [Compound 384, 3-(1-((1,5-dimethyl-1H-pyrazol-4-yl)sulfonyl)piperidin-4-yl)-4-methylpyridine] |  | 5760 nM
COc1ccc(S(=O)(=O)N2CCC(c3cn4ncnc4cc3C)CC2)cc1C(F)(F)F [Compound 130, 6-(1-((4-methoxy-3-(trifluoromethyl)phenyl)sulfonyl)piperidin-4-yl)-7-methyl-[1,2,4]triazoto[1,5-a]pyridine] |  | > 10000 nM
Cc1cc2nccn2nc1N1CCN(S(=O)(=O)c2cnn(C)c2C)CC1 [Compound 434, 6-[4-(1,5-Dimethylpyrazol-4-yl)sulfonylpiperazin-1-yl]-7-methyl-imidazo[1,2-b]pyridazine] | 43 nM | 
O=S(=O)(c1ccc2ncsc2c1)N1CCC(c2cc3[nH]ncc3cn2)CC1 [Compound 19, 6-((4-(1H-pyrazolo[4,3-c]pyridin-6-yl)piperidin-1-yl)sulfonyl)benzo[d]thiazole] |  | > 10000 nM
Cn1cc(S(=O)(=O)N2CCC(c3cn4ncnc4cc3C(F)(F)F)CC2)c(C(F)(F)F)n1 [Compound 99, 6-(1-((1-methyl-3-(trifluoromethyl)-1H-pyrazol-4-yl)sulfonyl)piperidin-4-yl)-7-(trifluoromethyl)-[1,2,4]triazolo[1,5-a]pyridine] |  | 5200 nM
Cc1nnc(S(=O)(=O)N2CCC(c3cn4ncnc4cc3Cl)CC2)[nH]1 [Compound 599, 7-chloro-6-(1-((5-methyl-4H-1,2,4-triazol-3-yl)sulfonyl)piperidin-4-yl)-[1,2,4]triazolo[1,5-a]pyridine] | > 10000 nM | 
COCC(=O)NCc1c(S(=O)(=O)N2CCC(c3cn4ncnc4cc3F)CC2)cnn1C [Compound 553, N-((4-((4-(7-fluoro-[1,2,4]triazoto[1,5-a]pyridin-6-yl)piperidin-1-yl)sulfonyl)-1-methyl-1H-pyrazol-5-yl)methyl)-2-methoxyacetamide] | > 10000 nM | 
Cc1c(C2CCN(S(=O)(=O)c3cn(C)nn3)CC2)cn2ncnc2c1F [Compound 558, 8-fluoro-7-methyl-6-(1-((1-methyl-1H-1,2,3-triazol-4-yl)sulfonyl)piperidin-4-yl)-[1,2,4]triazoto[1,5-a]pyridine] | 235 nM | 

The next lines start with the values.

IC50 (vs EC80 acetylcholine) | IC50 [1] | Compound
 | 74 nM | O=S(=O)(c1cnn2c1CCC2)N1CCC(c2cn3ncnc3cc2C(F)(F)F)CC1 [Compound 272, 6-(1-((5,6-dihydro-4H-pyrrolo[1,2-b]pyrazol-3-yl)sulfonyl)piperidin-4-yl)-7-(trifluoromethyl)-[1,2,4]triazolo[1,5-a]pyridine]
 | 19 nM | Cc1cc2nccn2nc1C1CCN(S(=O)(=O)c2cnn3c2CCCC3)CC1 [Compound 247, 7-methyl-6-(1-((4,5,6,7-tetrahydropyrazolo[1,5-a]pyridin-3-yl)sulfonyl)piperidin-4-yl)imidazo[1,2-b]pyridazine]
61 nM |  | Cn1ncc(S(=O)(=O)N2CCC(c3cn4ncnc4cc3C(F)F)CC2)c1C#N [Compound 482, 4-((4-(7-(difluoromethyl)-[1,2,4]triazolo[1,5-a]pyridin-6-yl)piperidin-1-yl)sulfonyl)-1-methyl-1H-pyrazole-5-carbonitrile]
 | 96 nM | Cc1cc2ncnn2cc1C1CCN(S(=O)(=O)c2cnn(C)c2C(F)(F)F)CC1 [Compound 162, 7-methyl-6-(1-((1-methyl-5-(trifluoromethyl)-1H-pyrazol-4-yl)sulfonyl)piperidin-4-yl)-[1,2,4]triazolo[1,5-a]pyridine]
 | 51 nM | O=S(=O)(c1cnn2c1CCCC2)N1CCC(c2cn3ncnc3cc2C(F)(F)F)CC1 [Compound 271, 6-(1-((4,5,6,7-tetrahydropyrazolo[1,5-a]pyridin-3-yl)sulfonyl)piperidin-4-yl)-7-(trifluoromethyl)-[1,2,4]triazolo[1,5-a]pyridine]
 | > 10000 nM | Cc1cc2ncnn2cc1C1CCN(S(=O)(=O)c2ccccc2F)CC1 [Compound 97, 6-(1-((2-fluorophenyl)sulfonyl)piperidin-4-yl)-7-methyl-[1,2,4]triazolo[1,5-a]pyridine]
 | 12 nM | O=S(=O)(c1cnc2n1CCCC2)N1CCC(c2cn3ncnc3cc2Cl)CC1 [Compound 343]
 | 14 nM | Cc1c(C2CCN(S(=O)(=O)c3cnn4c3CCC4)CC2)cn2ncnc2c1F [Compound 268, 6-(1-((5,6-dihydro-4H-pyrrolo[1,2-b]pyrazol-3-yl)sulfonyl)piperidin-4-yl)-8-fluoro-7-methyl-[1,2,4]triazolo[1,5-a]pyridine]
 | 23 nM | Cc1cc2ncnn2nc1C1CCN(S(=O)(=O)c2cnn3c2CCC3)CC1 [Compound 187, 6-(1-((5,6-dihydro-4H-pyrrolo[1,2-b]pyrazol-3-yl)sulfonyl)piperidin-4-yl)-7-methyl-[1,2,4]triazolo[1,5-b]pyridazine]
 | 38 nM | Cc1cc2ncnn2cc1C1CCN(S(=O)(=O)c2c(C)nn(C)c2C(F)(F)F)CC1 [Compound 220, 6-(1-((1,3-dimethyl-5-(trifluoromethyl)-1H-pyrazol-4-yl)sulfonyl)piperidin-4-yl)-7-methyl-[1,2,4]triazolo[1,5-a]pyridine]
